Measurements taken from patent US9040545B2, “Heterocyclyl pyrazolopyrimidine analogues as selective JAK inhibitors” (Cellzome Limited, priority 2010, dated 2015).
pIC50: −log10 of the molar value.

Legend:
JAK2 = target: T1, JAK2 (Homo sapiens, UniProt O60674); assay: Kinobeads assay, JAK2; format: binding; conditions: mixed Molt4/Ramos lysate, read-out: Inhibition values (IC50) JAK2
T1 construct: endogenous in cells; host or cells: mixed Molt4/Ramos lysate (1:2)
Protocol: (§1) The compounds of the present invention as described in the previous examples were tested in a Kinobeads™ assay as described for ZAP-70 (WO-A 2007/137867). Briefly, test compounds (at various concentrations) and the affinity matrix with the immobilized aminopyrido-pyrimidine ligand 24 were added to cell lysate aliquots and allowed to bind to the proteins in the lysate sample. After the incubation time the beads with captured proteins were separated from the lysate. Bound proteins were then eluted and the presence of JAK2 and JAK3 was detected and quantified using specific antibodies in a dot blot procedure and the Odyssey infrared detection system. Dose response curves for individual kinases were generated and IC50 values calculated. Kinobeads™ assays for ZAP-70 (WO-A 2007/137867) and for kinase selectivity profiling (WO-A 2006/134056) have been previously described.
(§2) The affinity matrix was washed two times with 15 mL of 1×DP buffer containing 0.2% NP40 (IGEPAL® CA-630, Sigma, #I3021) and then resuspended in 1×DP buffer containing 0.2% NP40 (3% beads slurry).
(§3) 5×DP buffer 250 mM Tris-HCl pH 7.4, 25% Glycerol, 7.5 mM MgCl2, 750 mM NaCl, 5 mM Na3VO4; filter the 5×DP buffer through a 0.22 μm filter and store in aliquots at −80° C. The 5×DP buffer is diluted with H2O to 1×DP buffer containing 1 mM DTT and 25 mM NaF.
(§4) Stock solutions of test compounds were prepared in DMSO. In a 96 well plate 30 μL solution of diluted test compounds at 5 mM in DMSO were prepared. Starting with this solution a 1:3 dilution series (9 steps) was prepared. For control experiments (no test compound) a buffer containing 2% DMSO was used.
Molt4 cells (ATCC catalogue number CRL-1582) and Ramos cells (ATCC catalogue number CRL-1596) were grown in 1 L Spinner flasks (Integra Biosciences, #182101) in suspension in RPMI 1640 medium (Invitrogen, #21875-034) supplemented with 10% Fetal Bovine Serum (Invitrogen) at a density between 0.15×106 and 1.2×10^6 cells/mL. Cells were harvested by centrifugation, washed once with 1×PBS buffer (Invitrogen, #14190-094) and cell pellets were frozen in liquid nitrogen and subsequently stored at −80° C. Cells were homogenized in a Potter S homogenizer in lysis buffer: 50 mM Tris-HCl, 0.8% NP40, 5% glycerol, 150 mM NaCl, 1.5 mM MgCl2, 25 mM NaF, 1 mM sodium vanadate, 1 mM DTT, pH 7.5. One complete EDTA-free tablet (protease inhibitor cocktail, Roche Diagnostics, 1873580) per 25 mL buffer was added. The material was dounced 10 times using a mechanized POTTER S, transferred to 50 mL falcon tubes, incubated for 30 minutes on ice and spun down for 10 minutes at 20,000 g at 4° C. (10,000 rpm in Sorvall SLA600, precooled). The supernatant was transferred to an ultracentrifuge (UZ)-polycarbonate tube (Beckmann, 355654) and spun for 1 hour at 100,000 g at 4° C. (33.500 rpm in Ti50.2, precooled). The supernatant was transferred again to a fresh 50 mL falcon tube, the protein concentration was determined by a Bradford assay (BioRad) and samples containing 50 mg of protein per aliquot were prepared. The samples were immediately used for experiments or frozen in liquid nitrogen and stored frozen at −80° C.
(§5) Cell lysate (approximately 50 mg protein per plate) was thawed in a water bath at room temperature and then stored on ice. To the thawed cell lysate 1×DP 0.8% NP40 buffer containing protease inhibitors (1 tablet for 25 mL buffer; EDTA-free protease inhibitor cocktail; Roche Diagnostics 1873580) was added in order to reach a final protein concentration of 10 mg/mL total protein. The diluted cell lysate was stored on ice. Mixed Molt4/Ramos lysate was prepared by combining one volume of Molt4 lysate and two volumes of Ramos lysate (ratio 1:2).
To a 96 well filter plate (Multiscreen HTS, BV Filter Plates, Millipore #MSBVN1250) were added per well: 100 μL affinity matrix (3% beads slurry), 3 μL of compound solution, and 50 μL of diluted lysate. […]

Aurora B = target: T2, Aurora B (Homo sapiens, UniProt Q96GD4); assay: Kinobeads assay, Aurora B; format: binding; conditions: for pIC50: lysate of pervanadate-treated Jurkat cells, read-out: Inhibition values (IC50) Aur B
T2 construct: cell lysates from Jurkat cells (ATCC TIB-152) used; endogenous in cells; host or cells: Jurkat cells (ATCC TIB-152), treated with pervanadate
T2 sequence (Q96GD4 whole entry): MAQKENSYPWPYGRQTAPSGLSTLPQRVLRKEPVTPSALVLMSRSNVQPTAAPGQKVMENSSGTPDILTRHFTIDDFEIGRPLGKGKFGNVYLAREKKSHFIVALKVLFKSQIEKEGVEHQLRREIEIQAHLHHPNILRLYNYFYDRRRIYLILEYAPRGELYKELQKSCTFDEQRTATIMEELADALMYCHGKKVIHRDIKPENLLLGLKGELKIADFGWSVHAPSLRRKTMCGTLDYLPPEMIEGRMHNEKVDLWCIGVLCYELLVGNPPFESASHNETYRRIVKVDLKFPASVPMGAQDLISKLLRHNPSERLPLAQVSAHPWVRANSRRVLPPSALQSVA
Protocol: as §1, §2, §3, §4, §5
To a 96 well filter plate (Multiscreen HTS, BV Filter Plates, Millipore #MSBVN1250) were added per well: 100 μL affinity matrix (3% beads slurry), 3 μL of compound solution, and 50 μL of diluted lysate. Plates were sealed and incubated for 3 hours in a cold room on a plate shaker (Heidolph tiramax 1000) at 750 rpm. Afterwards the plate was washed 3 times with 230 μL washing buffer (1×DP 0.4% NP40). The filter plate was placed on top of a collection 1 plate (Greiner bio-one, PP-microplate 96 well V-shape, 65120) and the beads were then eluted with 20 μL of sample buffer (100 mM Tris, pH 7.4, 4% SDS, 0.00025% bromophenol blue, 20% glycerol, 50 mM DTT). The eluate was frozen quickly at −80° C. and stored at −20° C.
The kinases in the eluates were detected and quantified by spotting on nitrocellulose membranes and using a first antibody directed against the kinase of interest and a fluorescently labelled secondary antibody (anti-rabbit IRDye™ antibody 800 (Licor, #926-32211). The Odyssey Infrared Imaging system from LI-COR Biosciences (Lincoln, Nebr., USA) was operated according to instructions provided by the manufacturer (Schutz-Geschwendener et al, 2004. Quantitative, two-color Western blot detection with infrared fluorescence. Published May 2004 by LI-COR Biosciences, www.licor.com).
After spotting of the eluates the nitrocellulose membrane (BioTrace NT; PALL, #BTNT30R) was first blocked by incubation with Odyssey blocking buffer (LICOR, 927-40000) for 1 hour at room temperature. Blocked membranes were then incubated for 16 hours at the temperature shown in Table 5 with the first antibody diluted in Odyssey blocking buffer (LICOR #927-40000). Afterwards the membrane was washed twice for 10 minutes with PBS buffer containing 0.2% Tween 20 at room temperature. […]

T1 sequence (O60674 whole entry): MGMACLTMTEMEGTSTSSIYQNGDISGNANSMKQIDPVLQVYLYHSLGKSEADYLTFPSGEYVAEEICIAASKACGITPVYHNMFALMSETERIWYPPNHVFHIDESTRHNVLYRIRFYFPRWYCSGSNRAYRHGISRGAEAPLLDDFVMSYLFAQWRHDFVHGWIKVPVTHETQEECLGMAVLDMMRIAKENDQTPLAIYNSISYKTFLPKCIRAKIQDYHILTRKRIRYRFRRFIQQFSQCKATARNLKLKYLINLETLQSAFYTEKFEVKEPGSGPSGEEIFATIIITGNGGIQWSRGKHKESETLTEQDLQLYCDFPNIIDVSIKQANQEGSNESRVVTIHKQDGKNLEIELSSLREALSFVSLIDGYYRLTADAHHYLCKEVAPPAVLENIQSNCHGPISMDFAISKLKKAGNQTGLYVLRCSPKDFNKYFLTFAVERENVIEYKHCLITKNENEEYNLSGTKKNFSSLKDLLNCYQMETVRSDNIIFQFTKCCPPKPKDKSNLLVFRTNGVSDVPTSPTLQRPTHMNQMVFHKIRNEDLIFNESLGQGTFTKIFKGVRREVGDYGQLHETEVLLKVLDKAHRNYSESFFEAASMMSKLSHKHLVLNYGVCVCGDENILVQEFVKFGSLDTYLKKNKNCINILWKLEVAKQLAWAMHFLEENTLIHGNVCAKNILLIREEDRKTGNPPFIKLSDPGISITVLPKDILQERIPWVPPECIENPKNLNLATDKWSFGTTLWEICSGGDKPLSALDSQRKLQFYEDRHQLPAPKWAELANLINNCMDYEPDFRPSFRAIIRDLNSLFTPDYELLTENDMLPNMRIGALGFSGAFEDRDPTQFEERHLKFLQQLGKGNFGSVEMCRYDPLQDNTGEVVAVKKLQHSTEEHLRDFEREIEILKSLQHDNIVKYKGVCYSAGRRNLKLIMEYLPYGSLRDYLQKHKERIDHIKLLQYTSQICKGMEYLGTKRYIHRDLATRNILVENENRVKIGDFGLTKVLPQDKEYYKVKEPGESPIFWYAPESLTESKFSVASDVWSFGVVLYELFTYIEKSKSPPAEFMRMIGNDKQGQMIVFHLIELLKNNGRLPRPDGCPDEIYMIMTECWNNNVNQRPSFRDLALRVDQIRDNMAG

Row | SMILES | pIC50 (JAK2) | JAK3/AurB Fold Selectivity (Aurora B) | pIC50 (Aurora B)
1 | Cn1cc(Nc2ncc3cnn(Cc4cccc(N5CCS(=O)(=O)CC5)c4)c3n2)cn1 [Example 25, 4-(3-((6-((1-Methyl-1H-pyrazol-4-yl)amino)-1H-pyrazolo[3,4-d]pyrimidin-1-yl)methyl)phenyl)thiomorpholine 1,1-dioxide] | ≤ 5.00 | 10-50 Fold | 6.00 to 7.00
2 | Cn1cc(Nc2ncc3cnn(Cc4cccc(N5CC6CCC(C5)O6)c4)c3n2)cn1 [Example 26] | ≤ 5.00 | 10-50 Fold | 5.00 to 6.00
3 | CN(C)CCCn1cc(Nc2ncc3cnn(Cc4cccc(N5CCOCC5=O)c4)c3n2)cn1 [Example 28, 4-(3-((6-((1-(3-(Dimethylamino)propyl)-1H-pyrazol-4-yl)amino)-1H-pyrazolo[3,4-d]pyrimidin-1-yl)methyl)phenyl)morpholin-3-one] | ≤ 5.00 | >50 Fold | 6.00 to 7.00
4 | O=C1COCCN1c1cccc(Cn2ncc3cnc(Nc4cnn(CCO)c4)nc32)c1 [Example 29, 4-(3-((6-((1-(2-Hydroxyethyl)-1H-pyrazol-4-yl)amino)-1H-pyrazolo[3,4-d]pyrimidin-1-yl)methyl)phenyl)morpholin-3-one] | ≤ 5.00 | 10-50 Fold | 6.00 to 7.00
5 | O=C1CCCN1CCCn1cc(Nc2ncc3cnn(Cc4cccc(N5CCOCC5)c4)c3n2)cn1 [Example 30, 1-(3-(4-((1-(3-Morpholinobenzyl)-1H-pyrazolo[3,4-d]pyrimidin-6-yl)amino)-1H-pyrazol-1-yl)propyl)pyrrolidin-2-one] | ≤ 5.00 | >50 Fold | 5.00 to 6.00
6 | CN(C)CC1(Cn2cc(Nc3ncc4cnn(Cc5cccc(N6CCOCC6)c5)c4n3)cn2)COC1 [Example 31, N-(1-((3-((Dimethylamino)methyl)oxetan-3-yl)methyl)-1H-pyrazol-4-yl)-1-(3-morpholinobenzyl)-1H-pyrazolo[3,4-d]pyrimidin-6-amine] | ≤ 5.00 | >50 Fold | 5.00 to 6.00
7 | CC(CN(C)C)Cn1cc(Nc2ncc3cnn(Cc4cccc(N5CCOCC5)c4)c3n2)cn1 (stereo not drawn) [Example 32, N-(1-(3-(Dimethylamino)-2-methylpropyl)-1H-pyrazol-4-yl)-1-(3-morpholinobenzyl)-1H-pyrazolo[3,4-d]pyrimidin-6-amine] | ≤ 5.00 | >50 Fold | 5.00 to 6.00
8 | CN(C)CC(O)Cn1cc(Nc2ncc3cnn(Cc4cccc(N5CCOCC5)c4)c3n2)cn1 (stereo not drawn) [Example 33, 1-(Dimethylamino)-3-(4-((1-(3-morpholinobenzyl)-1H-pyrazolo[3,4-d]pyrimidin-6-yl)amino)-1H-pyrazol-1-yl)propan-2-ol] | ≤ 5.00 | 10-50 Fold | 5.00 to 6.00
9 | NCCCn1cc(Nc2ncc3cnn(Cc4cccc(N5CCOCC5)c4)c3n2)cn1 [Example 34, N-(1-(3-Aminopropyl)-1H-pyrazol-4-yl)-1-(3-morpholinobenzyl)-1H-pyrazolo[3,4-d]pyrimidin-6-amine] | ≤ 5.00 | >50 Fold | 5.00 to 6.00

The next lines start with the values.

Row | pIC50 (JAK2) | JAK3/AurB Fold Selectivity (Aurora B) | pIC50 (Aurora B) | SMILES
10 | ≤ 5.00 | >50 Fold | 6.00 to 7.00 | OCCCn1cc(Nc2ncc3cnn(Cc4cccc(N5CCOCC5)c4)c3n2)cn1 [Example 18, 3-(4-((1-(3-Morpholinobenzyl)-1H-pyrazolo[3,4-d]pyrimidin-6-yl)amino)-1H-pyrazol-1-yl)propan-1-ol]
11 | ≤ 5.00 | 10-50 Fold | ≤ 5.00 | Cn1cc(Nc2ncc3cnn(Cc4cccc(N5CCC(F)(F)CC5)c4)c3n2)cn1 [Example 19, 1-(3-(4,4-Difluoropiperidin-1-yl)benzyl)-N-(1-methyl-1H-pyrazol-4-yl)-1H-pyrazolo[3,4-d]pyrimidin-6-amine]
12 | ≤ 5.00 | >50 Fold | 5.00 to 6.00 | O=C(CCn1cc(Nc2ncc3cnn(Cc4cccc(N5CCOCC5)c4)c3n2)cn1)N1CCCCC1 [Example 20, 3-(4-((1-(3-Morpholinobenzyl)-1H-pyrazolo[3,4-d]pyrimidin-6-yl)amino)-1H-pyrazol-1-yl)-1-(piperidin-1-yl)propan-1-one]
13 | 5.00 to 6.00 | >50 Fold | 5.00 to 6.00 | Cn1cc(Nc2ncc3cnn(Cc4cccc(N5CCOCC5)c4F)c3n2)cn1 [Example 21, 1-(2-Fluoro-3-morpholinobenzyl)-N-(1-methyl-1H-pyrazol-4-yl)-1H-pyrazolo[3,4-d]pyrimidin-6-amine]
14 | 5.00 to 6.00 | >50 Fold | 6.00 to 7.00 | Cn1cc(Nc2ncc3cnn(Cc4cccc(N5CCNCC5)c4)c3n2)cn1 [Example 22, N-(1-Methyl-1H-pyrazol-4-yl)-1-(3-(piperazin-1-yl)benzyl)-1H-pyrazolo[3,4-d]pyrimidin-6-amine]
15 | ≤ 5.00 | >50 Fold | 5.00 to 6.00 | FC(F)Cn1cc(Nc2ncc3cnn(Cc4cccc(N5CCOCC5)c4)c3n2)cn1 [Example 23, N-(1-(2,2-Difluoroethyl)-1H-pyrazol-4-yl)-1-(3-morpholinobenzyl)-1H-pyrazolo[3,4-d]pyrimidin-6-amine]
16 | ≤ 5.00 | >50 Fold | 5.00 to 6.00 | CNC(=O)CCn1cc(Nc2ncc3cnn(Cc4cccc(N5CCOCC5)c4)c3n2)cn1 [Example 24, N-Methyl-3-(4-((1-(3-morpholinobenzyl)-1H-pyrazolo[3,4-d]pyrimidin-6-yl)amino)-1H-pyrazol-1-yl)propanamide]
17 | 5.00 to 6.00 | 10-50 Fold | 6.00 to 7.00 | Cn1cc(Nc2ncc3cnn(Cc4cccc(N5CCOCC5=O)c4)c3n2)cn1 [Example 27, 4-(3-((6-((1-Methyl-1H-pyrazol-4-yl)amino)-1H-pyrazolo[3,4-d]pyrimidin-1-yl)methyl)phenyl)morpholin-3-one]
